“Also recorded” adds a separate entry of the source.
What was measured:
[1] = tested on: cytochrome P450 (CYP) 3A enzyme; assay: Elagolix as inducer and substrate of CYP3A
Excerpt: Co-administration with elagolix may decrease plasma concentration of drugs that are substrates of CYP3A.
Elagolix is a substrate of CYP3A, P-gp, and organic anion transporting polypeptide (OATP)1B1. Clinically meaningful interactions are not expected when elagolix is co-administered with drugs that inhibit CYP3A or P-gp.

[2] = tested on: CYP3A, CYP2D6, CYP2C8, uridine glucuronosyltransferases (UGTs); assay: Metabolism pathways of elagolix; format: in vitro ADME, human
QTc interval = assay: Thorough QT study; format: in vivo, human; conditions: up to 1200 mg; 17- to 23-fold therapeutic concentrations; active control moxifloxacin 400 mg
Description: The effect of elagolix (up to 1200 mg) on QTc interval was evaluated in an active-controlled (moxifloxacin 400 mg) thorough QT study.

[3] = tested on: women with moderate to severe endometriosis-related pain; assay: PROMIS Fatigue SF-6a T-score in Phase III endometriosis study; format: in vivo, human
Description: A Phase III study was conducted to assess the effects of elagolix for clinically meaningful reductions in pain and other symptoms. Data provided examined the impact of elagolix on fatigue in women with moderate to severe endometriosis-related pain. […] Fatigue was assessed using the Patient Reported Outcome Measurement Information System (PROMIS®), Fatigue Short Form (SF) 6a. Six items assessed a range of self-reported symptoms from mild, subjective feelings of tiredness to overwhelming, sustained sense of exhaustion that likely decreases one's ability to execute daily activities and function normally. The domain was divided into the experience of fatigue (frequency, duration and intensity) and impact of fatigue on physical, mental and social activities. All items assessed fatigue over the previous seven days. Responses to each question was filed on a 5-item Likert scale: 1—“Not at all”; 2—“A little bit”; 3—“Somewhat”; 4—“Quite a bit”; and 5—“Very much.” The questionnaire was administered at baseline and months 1, 3, and 6. Lower scores indicated less fatigue. Post-hoc, Fatigue SF-6a raw scores were converted to T-scores. The T-score rescales […] the raw score into a standardized score such that the general population has a mean of 50 and a standard deviation (SD) of 10. Analysis: […] ANCOVA controlled for treatment as main effect. Baseline Fatigue SF-6a T-score included as a covariate.

estradiol = assay: Estradiol suppression in the Phase 3 studies in women with endometriosis; format: in vivo, human; conditions: 150 mg QD, partial suppression
endometrium = assay: Endometrial biopsies in Study EM-I and its extension; format: in vivo, human; conditions: Month 6 and Month 12
Description: Endometrial biopsies were performed in subjects in Study EM-I and its extension at Month 6 and Month 12.

[4] = tested on: women treated in Studies EM-I and EM-II; assay: Adverse reactions in Studies EM-I and EM-II; format: in vivo, human; conditions: for Percentage of Patients with Amenorrhoea / Percentage of Patients with Anxiety / Percentage of Patients with Arthralgia / Percentage of Patients with Headache / Percentage of Patients with Hot Flush / Percentage of Patients with Insomnia / Percentage of Patients with Nasopharyngitis / Percentage of Patients with Nausea / Percentage of Patients with Sinusitis / Percentage of Patients with Upper Respiratory Tract Infection: Studies EM-I and EM-II; for discontinuations due to hot flush / discontinuations due to nausea / patients who discontinued therapy due to adverse reactions: EM-I and EM-II
Excerpt: The population age range was 18-49 years old. Women who completed six months of treatment and met eligibility criteria continued treatment in two blinded six-month extension studies, for a total treatment duration of up to 12 months.

[5] = tested on: premenopausal women with HMB, uterine fibroids and adenomyosis; assay: Phase 2b trial in women with HMB and uterine fibroids, subgroup with non-dominant adenomyosis; format: in vivo, human
Description: Patients and Methods: […] Elagolix studied in this clinical trial comprised the sodium salt of Compound A. All subjects were evaluated with ultrasound and a subset volunteered to also be evaluated by MRI. […] Efficacy and safety were evaluated post hoc in a subgroup of women who had confirmed non-dominant adenomyosis (ultrasound/MRI) at baseline. Menstrual blood loss (MBL) was quantified from sanitary products (alkaline hematin). […] Adverse events (AEs) were recorded.

healthy women = assay: 3-menstrual cycle study in healthy women (ovulation, endometrial thickness); format: in vivo, human; conditions: 150 mg QD and 200 mg BID, vs pretreatment

Question: COc1cccc(-c2c(C)n(Cc3c(F)cccc3C(F)(F)F)c(=O)n(C[C@H](NCCCC(=O)O)c3ccccc3)c2=O)c1F [Compound A, 4-((R)-2-[5-(2-fluoro-3-methoxy-phenyl)-3-(2-fluoro-6-trifluoromethyl-benzyl)-4-methyl-2,6-dioxo-3,6-dihydro-2H-pyrimidin-1-yl]-1-phenyl-ethylamino)-butyric acid] was tested. Which “induction of cytochrome P450 (CYP) 3A enzyme” value [1] did it give?
Answer: weak to moderate inducer

Question: What about the “substrate of CYP3A” value [1] of the same molecule?
Answer: substrate

Question: And the “Metabolism (major pathway)” value [2]?
Answer: CYP3A (major)

Question: And the “Metabolism, minor pathways” value ([2]; listed as Elagolix)?
Answer: Minor pathways include: CYP2D6,; also recorded: CYP2C8, and uridine; also recorded: glucuronosyltransferases (UGTs)

Question: What about the “Effect on QTc interval” value (QTc interval) of the same molecule?
Answer: does not prolong the QTc interval

Question: What about the “PROMIS Fatigue SF-6a T-Score” value ([3]; 200 mg, Month 1, vs placebo) of the same molecule?
Answer: statistically significant reduction in fatigue

Question: And the “PROMIS Fatigue SF-6a T-Score” value ([3]; both doses (150 mg QD, 200 mg BID), Months 3 and 6, vs placebo)?
Answer: Statistically significant reductions relative to placebo

Question: And the “suppression of estradiol to” value (estradiol)?
Answer: approximately 50 pg/mL

Question: What about the endometrial biopsy findings (endometrium) of the same molecule?
Answer: no abnormal biopsy findings post-baseline

Question: What about the “Percentage of Patients with Amenorrhoea” value ([4]; 150 mg QD, N = 475) of the same molecule?
Answer: 4%

Question: What about the “Percentage of Patients with Anxiety” value ([4]; 150 mg QD, N = 475) of the same molecule?
Answer: 3%

Question: What about the “Percentage of Patients with Arthralgia” value ([4]; 150 mg QD, N = 475) of the same molecule?
Answer: 3%

Question: And the “Percentage of Patients with Headache” value ([4]; 150 mg QD, N = 475)?
Answer: 17%

Question: And the “Percentage of Patients with Hot Flush” value ([4]; 150 mg QD, N = 475)?
Answer: 23%

Question: And the “Percentage of Patients with Insomnia” value ([4]; 150 mg QD, N = 475)?
Answer: 6%

Question: And the “Percentage of Patients with Nasopharyngitis” value ([4]; 150 mg QD, N = 475)?
Answer: 6%

Question: What about the “Percentage of Patients with Nausea” value ([4]; 150 mg QD, N = 475) of the same molecule?
Answer: 11%

Question: And the “Percentage of Patients with Sinusitis” value ([4]; 150 mg QD, N = 475)?
Answer: 5%

Question: What about the “Percentage of Patients with Upper Respiratory Tract Infection” value ([4]; 150 mg QD, N = 475) of the same molecule?
Answer: 6%

Question: And the “Percentage of Patients with Amenorrhoea” value ([4]; 200 mg BID, N = 477)?
Answer: 7%

Question: What about the “Percentage of Patients with Anxiety” value ([4]; 200 mg BID, N = 477) of the same molecule?
Answer: 5%

Question: And the “Percentage of Patients with Arthralgia” value ([4]; 200 mg BID, N = 477)?
Answer: 5%

Question: What about the “Percentage of Patients with Headache” value ([4]; 200 mg BID, N = 477) of the same molecule?
Answer: 20%

Question: What about the “Percentage of Patients with Hot Flush” value ([4]; 200 mg BID, N = 477) of the same molecule?
Answer: 45%

Question: What about the “Percentage of Patients with Insomnia” value ([4]; 200 mg BID, N = 477) of the same molecule?
Answer: 9%

Question: What about the “Percentage of Patients with Nasopharyngitis” value ([4]; 200 mg BID, N = 477) of the same molecule?
Answer: 6%

Question: And the “Percentage of Patients with Nausea” value ([4]; 200 mg BID, N = 477)?
Answer: 16%

Question: And the “Percentage of Patients with Sinusitis” value ([4]; 200 mg BID, N = 477)?
Answer: 6%

Question: What about the “Percentage of Patients with Upper Respiratory Tract Infection” value ([4]; 200 mg BID, N = 477) of the same molecule?
Answer: 4%

Question: What about the “discontinuations due to hot flush” value ([4]; 150 mg QD) of the same molecule?
Answer: 0.8%

Question: And the “discontinuations due to nausea” value ([4]; 150 mg QD)?
Answer: 0.8%

Question: What about the “patients who discontinued therapy due to adverse reactions” value ([4]; 150 mg QD) of the same molecule?
Answer: 5.5%

Question: And the “discontinuations due to hot flush” value ([4]; 200 mg BID)?
Answer: 2.5%

Question: And the “discontinuations due to nausea” value ([4]; 200 mg BID)?
Answer: 1.5%

Question: What about the “patients who discontinued therapy due to adverse reactions” value ([4]; 200 mg BID) of the same molecule?
Answer: 9.6%

Question: What about the “Events of hot flushes” value ([4]; majority assessed as mild to moderate) of the same molecule?
Answer: dose-dependent

Question: And the “proportion of women with ≥50% reduction from baseline in HMB and <80 mL MBL in the last 28 days of treatment” value (“proportion of women with ≥50% reduction” below) ([5]; Cohort 1, elagolix 300 mg BID with 0.5 mg E2/0.1 mg NETA (n=12))?
Answer: 83%

Question: What about the “proportion of women with ≥50% reduction” value ([5]; Cohort 1, elagolix 300 mg BID with 1.0 mg E2/0.5 mg NETA (n=5)) of the same molecule?
Answer: 100%

Question: What about the “proportion of women with ≥50% reduction” value ([5]; Cohort 2, elagolix 600 mg QD with 0.5 mg E2/0.1 mg NETA (n=14)) of the same molecule?
Answer: 93%

Question: And the “proportion of women with ≥50% reduction” value ([5]; Cohort 2, elagolix 600 mg QD with 1.0 mg E2/0.5 mg NETA (n=9))?
Answer: 89%

Question: And the “At least 1 AE, related or unrelated to study drug” value ([5]; elagolix-treated groups (n=22) in Cohort 1)?
Answer: 77%

Question: And the “At least 1 AE, related or unrelated to study drug” value ([5]; elagolix-treated groups (n=38) in Cohort 2)?
Answer: 67%

Question: What about the “mean endometrial thickness (transvaginal ultrasound)” value (healthy women) of the same molecule?
Answer: dose dependent decrease in the mean endometrial thickness
